Measurements published in US20130217664A1, “NOVEL COMPOUNDS USEFUL FOR THE TREATMENT OF DEGENERATIVE AND INFLAMMATORY DISEASES” (priority 2012, published 2013).

Assays:
Assay type in all cases: biochemical
human JAK2 = biological target: T1, human JAK2 (Homo sapiens, UniProt O60674); assay: JAK2 inhibition assay (polyGT substrate / Ulight-JAK1 peptide); details: recombinant human JAK2 catalytic domain; polyGT or Ulight-JAK1 peptide assay
T1 construct: catalytic domain (amino acids 808-1132; catalog number PV4210); GST; purchased Invitrogen PV4210
T1 sequence (O60674 808-1132): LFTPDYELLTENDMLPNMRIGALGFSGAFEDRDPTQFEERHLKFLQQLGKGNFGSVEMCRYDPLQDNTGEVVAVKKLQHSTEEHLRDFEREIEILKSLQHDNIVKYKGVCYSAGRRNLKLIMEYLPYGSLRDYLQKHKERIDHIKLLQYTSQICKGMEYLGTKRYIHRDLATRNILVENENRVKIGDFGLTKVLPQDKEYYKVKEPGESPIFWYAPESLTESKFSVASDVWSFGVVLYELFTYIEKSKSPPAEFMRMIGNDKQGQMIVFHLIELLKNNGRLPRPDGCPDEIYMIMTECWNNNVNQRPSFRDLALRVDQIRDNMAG
Procedure, shortened: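 Radiometric: 0.025 mU JAK2 with 2.5 μg polyGT, 1 μM ATP plus ^33P-ATP in MOPS pH 7.5 buffer, 1% DMSO, 90 min at 30° C.; filter counting. Alternative TR-FRET format with Ulight-JAK1 peptide, 60 min at room temperature, Eu-anti-phosphotyrosine detection.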

human TYK2 = biological target: T2, human TYK2 (Homo sapiens, UniProt P29597); assay: TYK2 inhibition assay; details: recombinant human TYK2 catalytic domain, polyGT substrate
T2 construct: catalytic domain (amino acids 871-1187; catalog number 08-147); purchased Carna Biosciences 08-147
T2 sequence (P29597 871-1187): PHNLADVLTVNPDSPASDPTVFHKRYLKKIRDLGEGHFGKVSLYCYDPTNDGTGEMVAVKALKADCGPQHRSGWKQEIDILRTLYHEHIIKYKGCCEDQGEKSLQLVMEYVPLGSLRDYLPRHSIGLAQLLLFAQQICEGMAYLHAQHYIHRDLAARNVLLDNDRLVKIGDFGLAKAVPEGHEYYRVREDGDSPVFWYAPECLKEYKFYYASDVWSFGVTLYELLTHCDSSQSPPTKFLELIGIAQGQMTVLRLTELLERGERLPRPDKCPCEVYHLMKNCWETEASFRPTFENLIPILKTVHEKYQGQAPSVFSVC
Procedure, shortened: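 Radiometric kinase reaction run 90 min at 30 °C, stopped with phosphoric acid, washed and scintillation-counted.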

human JAK1 = biological target: T3, human JAK1 (Homo sapiens, UniProt P23458); assay: JAK1 inhibition assay (polyGT substrate / Ulight-JAK1 peptide); details: recombinant human JAK1 catalytic domain; polyGT or Ulight-JAK1 peptide assay
T3 construct: catalytic domain, amino acids 866-1154; catalog number PV4774; purchased Invitrogen PV4774
T3 sequence (P23458 866-1154): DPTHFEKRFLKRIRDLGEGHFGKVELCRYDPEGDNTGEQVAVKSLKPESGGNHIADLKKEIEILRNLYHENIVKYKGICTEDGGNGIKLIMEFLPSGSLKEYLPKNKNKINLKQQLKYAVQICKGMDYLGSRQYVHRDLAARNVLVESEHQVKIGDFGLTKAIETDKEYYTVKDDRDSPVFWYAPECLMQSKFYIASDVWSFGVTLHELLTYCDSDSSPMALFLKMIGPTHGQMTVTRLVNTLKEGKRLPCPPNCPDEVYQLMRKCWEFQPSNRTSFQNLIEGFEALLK
Procedure, shortened: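 Two formats. PolyGT radiometric: 45 min at 30 °C, stopped with phosphoric acid, counted as cpm. Ulight-JAK1 peptide: 60 min at room temperature, stopped with Eu-anti-phosphotyrosine/EDTA, read as RFU. Percent inhibition normalised to vehicle and 10 μM staurosporine.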

IC50 (human JAK2) [nM]	IC50 (human TYK2) [nM]	IC50 (human JAK1) [nM]	SMILES
101 to 500	501 to 1000	0.01 to 100	CCc1cc(CNS(=O)(=O)C(F)F)ncc1N(C)c1cc2c(cn1)ncn2C [Compound 343, N-{4-Ethyl-5-[methyl-(1-methyl-1H-imidazo[4,5-c]pyridin-6-yl)-amino]-pyridin-2-ylmethyl}-C,C-difluoro-methane sulfonamide]
101 to 500	0.01 to 100	0.01 to 100	CCc1ccccc1N(CC(F)F)c1cc2c(cn1)ncn2C [Compound 463, N-(2,2-difluoroethyl)-N-(2-ethylphenyl)-1-methyl-1H-imidazo[4,5-c]pyridin-6-amine]
